From patent US9260425B2 (Genetech, Inc., priority 2011, dated 2016)

Target: Pim-1 (Homo sapiens (Human), UniProt P11309)
Assay: Pim kinase binding activity assay (Example 901), PIM-1 enzyme, Caliper microfluidic peptide phosphorylation
Assay type: biochemical
Details: 20 pM PIM-1, 10 μM ATP, 1 μM FAM-peptide, 90 minutes at room temperature
Method in brief: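 The readout was microfluidic mobility-shift separation of a FAM-tagged Pim-specific peptide, excited at 488 nm and read at 530 nm, with Ki calculated from percent conversion. Reactions held 20 pM PIM-1, 1 μM peptide and 10 μM ATP in pH 7.2 HEPES/MgCl2/DTT buffer, ran 90 min at room temperature and were stopped with EDTA.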

Pim-1, sequence (P11309 whole entry): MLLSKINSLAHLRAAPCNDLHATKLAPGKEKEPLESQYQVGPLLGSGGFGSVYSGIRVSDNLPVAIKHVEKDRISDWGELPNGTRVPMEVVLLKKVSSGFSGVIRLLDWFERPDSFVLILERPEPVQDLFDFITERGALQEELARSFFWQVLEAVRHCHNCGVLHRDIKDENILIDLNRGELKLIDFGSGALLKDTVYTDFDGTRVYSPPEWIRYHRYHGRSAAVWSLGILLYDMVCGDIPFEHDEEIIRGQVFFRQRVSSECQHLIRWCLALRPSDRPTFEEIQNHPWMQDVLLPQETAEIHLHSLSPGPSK

SMILES	Ki [nM]
O=c1cccc(-c2n[nH]c3cnc(-c4cccnc4)cc23)[nH]1 [Example 132, 6-(5-(pyridin-3-yl)-1H-pyrazolo[3,4-c]pyridin-3-yl)pyridin-2(1H)-one]	130
NC(=O)c1ccnc(-c2n[nH]c3cnc(-c4cccnc4)cc23)c1 [Example 302, 2-(5-(pyridin-3-yl)-1H-pyrazolo[3,4-c]pyridin-3-yl)isonicotinamide]	6
Fc1cccc(-c2n[nH]c3cnc(-c4cccnc4)cc23)n1 [Example 131, 3-(6-fluoropyridin-2-yl)-5-(pyridin-3-yl)-1H-pyrazolo[3,4-c]pyridine]	13.1
Cc1ccc(-c2n[nH]c3cnc(-c4cccnc4)cc23)nc1N1CCC[C@@H](O)C1 [Example 309, (R)-1-(3-methyl-6-(5-(pyridin-3-yl)-1H-pyrazolo[3,4-c]pyridin-3-yl)pyridin-2-yl)piperidin-3-ol]	0.112
CCn1cc(-c2cc3c(-c4cccc(N5CCNC[C@H](O)C5)n4)n[nH]c3cn2)cn1 [Example 410, (S)-1-(6-(5-(1-ethyl-1H-pyrazol-4-yl)-1H-pyrazolo[3,4-c]pyridin-3-yl)pyridin-2-yl)-1,4-diazepan-6-ol]	0.039
Cc1cncc(-c2cc3c(-c4cccc(N5CCNCC5)n4)n[nH]c3cn2)c1 [Example 384, 5-(5-methylpyridin-3-yl)-3-(6-(piperazin-1-yl)pyridin-2-yl)-1H-pyrazolo[3,4-c]pyridine]	0.041
CC1CN(c2cccc(-c3n[nH]c4cnc(-c5cnn(CCF)c5)cc34)n2)CCN1 (stereo not shown) [Example 516, 5-(1-(2-fluoroethyl)-1H-pyrazol-4-yl)-3-(6-(3-methylpiperazin-1-yl)pyridin-2-yl)-1H-pyrazolo[3,4-c]pyridine]	0.024
CCn1cc(-c2cc3c(-c4cncc(N5CCNCC5)n4)n[nH]c3cn2)cn1 [Example 479, 5-(1-ethyl-1H-pyrazol-4-yl)-3-(6-(piperazin-1-yl)pyrazin-2-yl)-1H-pyrazolo[3,4-c]pyridine]	0.064
CN1CCN(c2cc3c(-c4ccccc4)n[nH]c3cn2)CC1=O [Example 330, 1-methyl-4-(3-phenyl-1H-pyrazolo[3,4-c]pyridin-5-yl)piperazin-2-one]	660
CCn1cc(-c2cc3c(-c4cccc(N5CCNCC(F)C5)n4)n[nH]c3cn2)cn1 (stereo not shown) [Example 504, 5-(1-ethyl-1H-pyrazol-4-yl)-3-(6-(6-fluoro-1,4-diazepan-1-yl)pyridin-2-yl)-1H-pyrazolo[3,4-c]pyridine]	0.076
CCc1ccc(-c2n[nH]c3cnc(-c4cnn(C)c4)cc23)nc1N1CCC[C@H](N)C1 [Example 429, (S)-1-(3-ethyl-6-(5-(1-methyl-1H-pyrazol-4-yl)-1H-pyrazolo[3,4-c]pyridin-3-yl)pyridin-2-yl)piperidin-3-amine]	0.022
FC1(c2cccc(-c3n[nH]c4cnc(-c5cccnc5)cc34)n2)CCNCC1 [Example 421, 3-(6-(4-fluoropiperidin-4-yl)pyridin-2-yl)-5-(pyridin-3-yl)-1H-pyrazolo[3,4-c]pyridine]	0.105
CCn1cc(-c2cc3c(-c4cc(C(F)(F)F)ccn4)n[nH]c3cn2)cn1 [Example 469, 5-(1-ethyl-1H-pyrazol-4-yl)-3-(4-(trifluoromethyl)pyridin-2-yl)-1H-pyrazolo[3,4-c]pyridine]	65.6
c1ccc(-c2n[nH]c3cnc(-c4cncnc4)cc23)cc1 [Example 150, 3-phenyl-5-(pyrimidin-5-yl)-1H-pyrazolo[3,4-c]pyridine]	209

More lines, in order of falling Ki, values ahead:

Ki [nM]	SMILES
5500	CN1CCN(c2cc3c(-c4ccccc4F)n[nH]c3cn2)CC1=O [Example 339, 4-(3-(2-fluorophenyl)-1H-pyrazolo[3,4-c]pyridin-5-yl)-1-methylpiperazin-2-one]
3.96	c1cc(-c2n[nH]c3cnc(C4CCCOC4)cc23)nc(N2CCNCC2)c1 (stereo not shown) [Example 181, 3-(6-(piperazin-1-yl)pyridin-2-yl)-5-(tetrahydro-2H-pyran-3-yl)-1H-pyrazolo[3,4-c]pyridine]
1.71	NCC1CCN(c2cncc(-c3cc4c(-c5ccccc5F)n[nH]c4cn3)c2)CC1 [Example 167, (1-(5-(3-(2-fluorophenyl)-1H-pyrazolo[3,4-c]pyridin-5-yl)pyridin-3-yl)piperidin-4-yl)methanamine]
1.31	NC1CCN(c2cncc(-c3cc4c(-c5ccccc5F)n[nH]c4cn3)c2)CC1 [Example 157, 1-(5-(3-(2-fluorophenyl)-1H-pyrazolo[3,4-c]pyridin-5-yl)pyridin-3-yl)piperidin-4-amine]
0.717	c1cncc(-c2cc3c(-c4cnn(CC5CCNCC5)c4)n[nH]c3cn2)c1 [Example 186, 3-(1-(piperidin-4-ylmethyl)-1H-pyrazol-4-yl)-5-(pyridin-3-yl)-1H-pyrazolo[3,4-c]pyridine]
0.366	Cn1cc(-c2cc3c(-c4ccnc(N5CCCCC5)n4)n[nH]c3cn2)cn1 [Example 360, 5-(1-methyl-1H-pyrazol-4-yl)-3-(2-(piperidin-1-y1)pyrimidin-4-yl)-1H-pyrazolo[3,4-c]pyridine]
0.261	O[C@@H]1CCCN(c2nc(-c3n[nH]c4cnc(-c5cccnc5)cc34)ccc2Br)C1 [Example 291, (R)-1-(3-bromo-6-(5-(pyridin-3-yl)-1H-pyrazolo[3,4-c]pyridin-3-yl)pyridin-2-yl)piperidin-3-ol]
0.1	NCC1CCN(c2cccc(-c3n[nH]c4cnc(-c5cccnc5)cc34)n2)CC1 [Example 278, (1-(6-(5-(pyridin-3-yl)-1H-pyrazolo[3,4-c]pyridin-3-yl)pyridin-2-yl)piperidin-4-yl)methanamine]
0.0721	CCn1cc(-c2cc3c(-c4cccc(N5CCC[C@](C)(O)C5)n4)n[nH]c3cn2)cn1 [Example 464, (S)-1-(6-(5-(1-ethyl-1H-pyrazol-4-yl)-1H-pyrazolo[3,4-c]pyridin-3-yl)pyridine-2-yl)-3-methylpiperidin-3-ol]
0.051	Cn1cc(-c2cc3c(-c4cccc(N5CCCCC(N)C5)n4)n[nH]c3cn2)cn1 (stereo not shown) [Example 226, 1-(6-(5-(1-methyl-1H-pyrazol-4-yl)-1H-pyrazolo[3,4-c]pyridin-3-yl)pyridin-2-yl)azepan-3-amine]
0.046	CC(C)c1ccc(-c2n[nH]c3cnc(-c4cccnc4)cc23)nc1N1CCC[C@H](N)C1 [Example 328, (S)-1-(3-isopropyl-6-(5-(pyridin-3-yl)-1H-pyrazolo[3,4-c]pyridin-3-yl)pyridin-2-yl)piperidin-3-amine]
0.0294	C[C@H]1CN(c2cccc(-c3n[nH]c4cnc(-c5cnn(CCF)c5)cc34)n2)CCN1 [Example 503, (S)-5-(1-(2-fluoroethyl)-1H-pyrazol-4-yl)-3-(6-(3-methylpiperazin-1-yl)pyridin-2-yl)-1H-pyrazolo[3,4-c]pyridine]
0.02	CCn1cc(-c2cc3c(-c4ccc(C(C)C)c(N5CCC[C@H](N)C5)n4)n[nH]c3cn2)cn1 [Example 478, (S)-1-(6-(5-(1-ethyl-1H-pyrazol-4-yl)-1H-pyrazolo[3,4-c]pyridin-3-yl)-3-isopropylpyridin-2-yl)piperidin-3-amine]
0.01	C=C(C)c1ccc(-c2n[nH]c3cnc(-c4cccnc4)cc23)nc1N1CCC[C@H](N)C1 [Example 308, (S)-1-(3-(prop-1-en-2-yl)-6-(5-(pyridin-3-yl)-1H-pyrazolo[3,4-c]pyridin-3-yl)pyridin-2-yl)piperidin-3-amine]
